In patent US10668149B2, “Combination therapies for heme malignancies with anti-CD38 antibodies and survivin inhibitors” (Janssen Biotech, Inc., priority 2015, dated 2020):
Entries after “also recorded” stand apart in the source; their conditions may differ.

What was measured:
RPMI-8226 cells = assay: Compartment-specific BLI-based ADCC cytotoxicity assay, RPMI-8226; format: cell-based, human; details: 4 hours; for lysis of cells: daratumumab 0.3 μg/ml, YM155 1 nM, PBMC effector:target 40:1
Description: (§1) hBMSC were plated at a density of 1×10^4 cells/well in white opaque flat-bottomed 96-well plates (Costar) in 100 μl culture medium. After an adherence period of six hours, luc-transduced MM cell lines were added at a density of 1×10^4 cells/well in BMSC-coated or uncoated wells. In experiments in which YM155 was tested, YM155 was added at indicated concentrations together with MM cells. After 16-20 hours, daratumumab was added at indicated concentrations and left for 15 minutes at room temperature. Freshly isolated PBMC from healthy individuals were then added as effector cells at the indicated effector target ratios. 4 hours after addition of PBMC, 125 μg/ml beetle luciferin (Promega) was added and the bioluminescent signal emitted from surviving MM cells was determined within 20 minutes using a luminometer (SpectraMax, Molecular Devices). The percentage survival of MM cells was calculated using the formula: % survival=(mean bioluminescent signal in the absence of PBMCs/mean bioluminescent signal in the presence of PBMCs)×100%. In these assays the survival of MM cells is a direct reflection of ADCC mediated lysis and correlates with classical chromium release assays as described in McMillin et al., Nat Med 16:483-489, 2010.
Induction of ADCC by healthy donor BMSCs against two CD38^+ luciferase transduced MM cell lines, UM9 and RPMI was tested with serial concentrations of daratumumab in the presence or absence of HD-PBMCs as effector cells in compartment-specific BLI-based cytotoxicity assays.
In the assays, daratumumab and YM155 were used at a concentration of 0.3 μg/ml and 1 nM, respectively, for RPMI-8226 cells and at a concentration of 1 μg/ml and 120 nM for MM patient samples, respectively. Healthy donor PBMCs were used as effector cells at effector:target cell ratio of 40:1 for RPMI-8226 cells and 30:1 for MM patient samples.

[1] = system: NK cells (CD3−CD138−CD56+ cells); assay: Effect of YM155 on NK cell viability by FACS; format: cell-based, human; details: 24 hours
Description: FIG. 3. […] HD-PBMCs and patient bone marrow mononuclear cells (BMMNCs) were incubated with the indicated concentrations of YM155 for 24 hours. The number of viable CD3^−CD56^+ NK cells was determined by flow cytometry and the percent lysis was calculated using the untreated samples as negative control. Effect of YM155 on NK cell viability was evaluated first. BM-MNCs of MM patients were cultured in the presence of different doses of YM155 for 24 hours. Viability of MM cells (CD138^+ cells) and NK cells (CD3^−CD138^−CD56^+ cells) were determined by FACS.

MM cell line UM9 = assay: In vivo tumor targeting, UM9 in humanized BM-like scaffolds; parameters: species or system RAG2−/−γc−/− mice; details: UM9 scaffolds s.c.; YM155 1 mg/kg/d for 10 days by s.c. infusion pump; T cell-depleted HD-PBMCs given
Text: FIG. 5. Antitumor effect of daratumumab and YM155 combination therapy. Analysis of tumor load per treatment group in RAG2^−/−γc^−− mice implanted with UM9 cells. Hybrid scaffolds coated with human MSCs and loaded with luciferase transduced MM cell line UM9 were implanted subcutaneously in the back of RAG2^−/−γc^−− mice (4 scaffolds per mice). Ten days after implantation, the growing tumors were visualized and quantified by BLI. Different groups of mice (n=4) were then either treated with vehicle control (control) or treated with daratumumab, YM155 or daratumumab plus YM155 as indicated. […] Mice were monitored weekly by BLI. Results are expressed as the mean tumor load in each scaffold. […] The statistical differences between mice treated with daratumumab and mice treated with daratumumab plus YM155 were calculated using the Mann-Whitney U-test. […]
The in vivo relevance of the combination of daratumumab with YM155 was tested in the preclinical xenograft model in RAG2^−/−gc^−/− mice, in which MM tumors were grown in a humanized BM-like niche created by subcutaneous implantation of ceramic scaffolds coated with human BMSCs. […] Ten days after implantation, the growing tumors were visualized and quantified by BLI. […] Mice were monitored weekly by BLI. […] Statistical differences between mice treated with daratumumab and mice treated with daratumumab plus YM155 were calculated using the Mann-Whitney U-test.

MM cells (CD138+ cells) = assay: Viability of MM cells in BM-MNCs cultured with YM155 by FACS; format: cell-based, human; details: BM-MNCs of MM patients; different doses of YM155; 24 hours
Description: Effect of YM155 on NK cell viability was evaluated first. BM-MNCs of MM patients were cultured in the presence of different doses of YM155 for 24 hours. Viability of MM cells (CD138^+ cells) and NK cells (CD3^−CD138^−CD56^+ cells) were determined by FACS.

UM9 MM cells = assay: Compartment-specific BLI-based ADCC cytotoxicity assay, UM9; format: cell-based, human; details: serial concentrations, PBMC:MM 30:1, 4 hours
Description: as §1, with “2010. […]” for “2010.”

primary CD138+ MM cells = assay: FACS based ADCC assay in Multiple Myeloma BM-MNC; format: cell-based, human; details: presence of autologous MM-BMSCs; both donors; 24 hours
Description: Frozen BM-MNCs from MM patients with 15-35% CD138^+ MM cells were used in FACS-based ADCC assays. The cells were thawed and cultured in 10% HS in RPMI. After 16-20 h, BM-MNCs were counted by trypan blue exclusion and 4×10^4 cells/well were plated in 96 round bottom plates. Daratumumab and/or YM155 were added in the wells as indicated per experiment. After 24 hours, cells were stained with fluorescent conjugated anti-CD138, anti-CD38, anti-CD56 and anti-CD3 antibodies and the survival of primary CD138^+ MM cells in the BM-MNCs was determined by FACS as previously described (Groen et al., Blood 120:e9-e16, 2012). Percentage lysis of MM cells was deduced using the following formula: % lysis cells=1−(counts of surviving CD138^+ cells in treated wells/counts of number of surviving CD138^+ cells in control wells)×100%.
Ability of BMSCs to protect primary MM cells from daratumumab-induced ADCC was also evaluated in a FACS-based ADCC assay using methodology described above. In the assays, BM-MNCs containing at least 15% CD138^+ malignant plasma cells and sufficient numbers of autologous effector NK cells were incubated with daratumumab to induce ADCC. The BM-MNCs were tested either alone or in co-culture with autologous BMSCs to evaluate the effect of BMSCs. FACS-based viability assay was performed after 24 hours of culture to determine CD138^+ surviving cells and calculate lysis. […]

Compound	lysis of cells (RPMI-8226 cells; absence of BMSCs)	lysis of cells (RPMI-8226 cells; presence of BMSCs)	viability of NK cells ([1]; BM-MNCs of MM patients, different doses of YM155)	NK cell lysis ([1]; HD-PBMCs and patient BMMNCs, indicated concentrations of YM155)	tumor growth (BLI) (MM cell line UM9)	viability of MM cells (CD138+ cells) (MM cells (CD138+ cells))	daratumumab-induced ADCC (RPMI-8226 cells; absence of BMSCs, serial concentrations, PBMC:MM 30:1)	sensitivity to daratumumab-induced ADCC (RPMI-8226 cells; presence of BMSCs, serial concentrations, PBMC:MM 30:1)	daratumumab-induced ADCC (UM9 MM cells; absence of BMSCs)	sensitivity to daratumumab-induced ADCC (UM9 MM cells; presence of BMSCs)	induction of ADCC of primary MM cells (primary CD138+ MM cells)
COCCn1c2c([n+](Cc3cnccn3)c1C)C(=O)c1ccccc1C2=O [YM155, 4,9-Dihydro-1-(2-methoxyethyl)-2-methyl-4,9-dioxo-3-(2-pyrazinylmethyl)-1H-naphth[2,3-d]imidazolium bromide]	about 20%	no effect	not affected; also recorded: does not negatively interfere	does not induce NK cell lysis	more pronounced	some toxicity					
daratumumab: anti-CD38 antibody of IgG1/κ subtype, VH SEQ ID NO: 4 and VL SEQ ID NO: 5	about 20%	about 10%			marginal effect		dose dependent fashion	less sensitive	dose dependent fashion	less sensitive	less efficient
